The values below come from ChEMBL document CHEMBL1828577, “Design and synthesis of some new thiophene, thienopyrimidine and thienothiadiazine derivatives of antipyrine as potential antimicrobial agents” (2011).

For test [1], the system named is Staphylococcus aureus. Kind of test: Antibacterial activity against Staphylococcus aureus RCMB 000106 at 30 mg/ml after 24 hrs by agar well diffusion method. Format: functional. To be noted: RCMB 000106, 24 h, read-out: DIZ.
The test system of test [2] is Bacillus subtilis. Description: Antibacterial activity against Bacillus subtilis RCMB 000107 at 30 mg/ml after 24 hrs by agar well diffusion method. Format: functional. The settings on record: RCMB 000107, 24 h, read-out: DIZ.

Regarding `CC1(C)S[C@@H]2[C@H](NC(=O)Cc3ccccc3)C(=O)N2[C@H]1C(=O)O` [PENICILLIN G], the results for the zone of inhibition at 30000 µg/mL in test [1] and in test [2] were 29.4 mm and 32.5 mm, respectively.

As for `CN[C@@H]1[C@H](O[C@H]2[C@H](O[C@H]3[C@H](O)[C@@H](O)[C@H](N=C(N)N)[C@@H](O)[C@@H]3N=C(N)N)O[C@@H](C)[C@]2(O)C=O)O[C@@H](CO)[C@H](O)[C@H]1O` [STREPTOMYCIN], the zone of inhibition at 30000 µg/mL worked out at 25 mm in test [1] and 29 mm in test [2].
